Where a SMILES comes first, the peptide text is derived from it. The star is where a group is joined. Myristoyl = CCCCCCCCCCCCCC(=O)*
How the values were obtained:
MDA-MB-231 cells = format: cell-based, human; details: 50 μM peptide, 48 hours, n = 1
Description: (§1) Non-adherent cells were removed during the washing steps.

[1] = tested on: CD44^hiCD24^lo CSCs in MDA-MB-231 cells; test: FACS analysis of CD44^hiCD24^lo cancer stem cells in MDA-MB-231 cells treated with P1 analogues; format: cell-based, human; details: 50 μM peptide, 48 hours; for CD44^hiCD24^lo CSCs (%) / COI, Live Single CD44^hiCD24^lo CSCs (Cell Count): n = 1; for Average Inhibition of CSCs (%) / CD44^hiCD24^lo CSCs (%) Repeat 1 / CD44^hiCD24^lo CSCs (%) Repeat 2 / CD44^hiCD24^lo CSCs (%) Repeat 3: n = 3
Procedure: Analogues of P1 (Table 6) were designed and synthesized in accordance with the procedure of Example 5. The ability of these analogues to inhibit cancer stem cells was determined using FACS analysis on MDA-MB-231 cells, which constitutively contain approximately 90% CD44^hiCD24^lo cancer stem cells, treated with the peptides.
as §1
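Throughout, for COI, Live Single Cells (Cell Count): live means Hoechst-negative events among single cells.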

| Structure (SMILES) | COI (Cell Count) (MDA-MB-231 cells) | COI, Live Single Cells (Cell Count) (MDA-MB-231 cells) | COI, Single (Cell Count) (MDA-MB-231 cells) | Total Cell Count (MDA-MB-231 cells) | Inhibition of CSCs (%) Repeat 1 [1] | Inhibition of CSCs (%) Repeat 2 [1] | Inhibition of CSCs (%) Repeat 3 [1] | CD44^hiCD24^lo CSCs (%) [1] | COI, Live Single CD44^hiCD24^lo CSCs (Cell Count) [1] | Average Inhibition of CSCs (%) [1] | CD44^hiCD24^lo CSCs (%) Repeat 1 [1] | CD44^hiCD24^lo CSCs (%) Repeat 2 [1] | CD44^hiCD24^lo CSCs (%) Repeat 3 [1] |
| --- | --- | --- | --- | --- | --- | --- | --- | --- | --- | --- | --- | --- | --- |
| CCCCCCCCCCCCCC(=O)N[C@@H](CC(C)C)C(=O)N[C@H](C(=O)N[C@@H](Cc1ccccc1)C(=O)N[C@H](C(=O)N[C@@H](CCC(=O)O)C(=O)N[C@@H](CCCNC(=N)N)C(=O)N[C@@H](CC(C)C)C(=O)N[C@@H](CCCNC(=N)N)C(=O)N[C@@H](CCCCN)C(=O)NCC(=O)N[C@@H](CCCNC(=N)N)C(=O)N[C@@H](CCSC)C(=O)N[C@@H](CCSC)C(=O)N[C@@H](CC(=O)O)C(=O)N[C@H](C(=O)N[C@@H](CCCCN)C(=O)N[C@@H](CCCCN)C(N)=O)C(C)C)[C@@H](C)CC)[C@@H](C)O [Peptide 2853813, Myristoyl-LTFIERLRKGRMMDVKK-NH2] (Myristoyl-LTFIERLRKGRMMDVKK-NH2) | 55 | 18 | 48 | 867 | 77.05% | 75.44% | 67.63% | 27.78% | 5 | 73.37% | 20.57% | 22.04% | 29.05% |
| CCCCCCCCCCCCCC(=O)N[C@@H](CC(C)C)C(=O)N[C@H](C(=O)N[C@@H](Cc1ccccc1)C(=O)N[C@H](C(=O)N[C@@H](Cc1ccccc1)C(=O)N[C@@H](CCCNC(=N)N)C(=O)N[C@@H](CC(C)C)C(=O)N[C@@H](CCCNC(=N)N)C(=O)N[C@@H](CCCCN)C(=O)NCC(=O)N[C@@H](CCCNC(=N)N)C(=O)N[C@@H](CCSC)C(=O)N[C@@H](CCSC)C(=O)N[C@@H](CCCCN)C(=O)N[C@H](C(=O)N[C@@H](CCCCN)C(=O)N[C@@H](CCCCN)C(N)=O)C(C)C)[C@@H](C)CC)[C@@H](C)O [Peptide 2853836, Myristoyl-LTFIFRLRKGRMMKVKK-NH2] (Myristoyl-LTFIFRLRKGRMMKVKK-NH2) | 761 | 86 | 547 | 5448 | 88.84% | 82.17% | 86.35% | 9.30% | 8 | 85.79% | 10.00% | 16.00% | 12.24% |
| CCCCCCCCCCCCCC(=O)N[C@@H](CC(C)C)C(=O)N[C@H](C(=O)N[C@@H](CCCCN)C(=O)N[C@H](C(=O)N[C@@H](Cc1ccccc1)C(=O)N[C@@H](CCCNC(=N)N)C(=O)N[C@@H](CC(C)C)C(=O)N[C@@H](CCCNC(=N)N)C(=O)N[C@@H](CCCCN)C(=O)NCC(=O)N[C@@H](CCCNC(=N)N)C(=O)N[C@@H](CCSC)C(=O)N[C@@H](CCSC)C(=O)N[C@@H](CC(=O)O)C(=O)N[C@H](C(=O)N[C@@H](CCCCN)C(=O)N[C@@H](CCCCN)C(N)=O)C(C)C)[C@@H](C)CC)[C@@H](C)O [Peptide 2853808, Myristoyl-LTKIFRLRKGRMMDVKK-NH2] (Myristoyl-LTKIFRLRKGRMMDVKK-NH2) | 323 | 242 | 279 | 1192 | 87.54% | 84.31% | 84.48% | 10.74% | 26 | 85.44% | 11.17% | 14.07% | 13.92% |
| CCCCCCCCCCCCCC(=O)N[C@@H](CC(C)C)C(=O)N[C@H](C(=O)N[C@@H](Cc1ccccc1)C(=O)N[C@H](C(=O)N[C@@H](Cc1ccccc1)C(=O)N[C@@H](CCCNC(=N)N)C(=O)N[C@@H](CC(C)C)C(=O)N[C@@H](CCCNC(=N)N)C(=O)N[C@@H](CCCCN)C(=O)NCC(=O)N[C@@H](CCCNC(=N)N)C(=O)N[C@@H](CCSC)C(=O)N[C@@H](CCC(=O)O)C(=O)N[C@@H](CC(=O)O)C(=O)N[C@H](C(=O)N[C@@H](CCCCN)C(=O)N[C@@H](CCCCN)C(N)=O)C(C)C)[C@@H](C)CC)[C@@H](C)O [Peptide 2853834, Myristoyl-LTFIFRLRKGRMEDVKK-NH2] (Myristoyl-LTFIFRLRKGRMEDVKK-NH2) | 890 | 382 | 660 | 4207 | 91.98% | 92.08% | 92.04% | 5.76% | 22 | 92.03% | 7.18% | 7.11% | 7.14% |
| CCCCCCCCCCCCCC(=O)N[C@@H](C)C(=O)N[C@H](C(=O)N[C@@H](Cc1ccccc1)C(=O)N[C@H](C(=O)N[C@@H](Cc1ccccc1)C(=O)N[C@@H](CCCNC(=N)N)C(=O)N[C@@H](CC(C)C)C(=O)N[C@@H](CCCNC(=N)N)C(=O)N[C@@H](CCCCN)C(=O)NCC(=O)N[C@@H](CCCNC(=N)N)C(=O)N[C@@H](CCSC)C(=O)N[C@@H](CCSC)C(=O)N[C@@H](CC(=O)O)C(=O)N[C@H](C(=O)N[C@@H](CCCCN)C(=O)N[C@@H](CCCCN)C(N)=O)C(C)C)[C@@H](C)CC)[C@@H](C)O [Peptide 2853801, Myristoyl-ATFIFRLRKGRMMDVKK-NH2] (Myristoyl-ATFIFRLRKGRMMDVKK-NH2) | 2375 | 1894 | 2024 | 8558 | 93.01% | 94.77% | 94.78% | 5.39% | 102 | 94.19% | 6.27% | 4.69% | 4.68% |
| CCCCCCCCCCCCCC(=O)N[C@@H](CC(C)C)C(=O)N[C@H](C(=O)N[C@@H](Cc1ccccc1)C(=O)N[C@H](C(=O)N[C@@H](Cc1ccccc1)C(=O)N[C@@H](CCCNC(=N)N)C(=O)N[C@@H](CC(C)C)C(=O)N[C@@H](CCCNC(=N)N)C(=O)N[C@@H](CCCCN)C(=O)N[C@@H](CCCCN)C(=O)N[C@@H](CCCNC(=N)N)C(=O)N[C@@H](CCSC)C(=O)N[C@@H](CCSC)C(=O)N[C@@H](CC(=O)O)C(=O)N[C@H](C(=O)N[C@@H](CCCCN)C(=O)N[C@@H](CCCCN)C(N)=O)C(C)C)[C@@H](C)CC)[C@@H](C)O [Peptide 2853828, Myristoyl-LTFIFRLRKKRMMDVKK-NH2] (Myristoyl-LTFIFRLRKKRMMDVKK-NH2) | 182 | 28 | 146 | 3309 | 89.25% | 91.29% | 90.17% | 10.71% | 3 | 90.23% | 9.64% | 7.81% | 8.82% |
| CCCCCCCCCCCCCC(=O)N[C@@H](CC(C)C)C(=O)N[C@@H](CC(C)C)C(=O)N[C@@H](Cc1ccccc1)C(=O)N[C@H](C(=O)N[C@@H](Cc1ccccc1)C(=O)N[C@@H](CCCNC(=N)N)C(=O)N[C@@H](CC(C)C)C(=O)N[C@@H](CCCNC(=N)N)C(=O)N[C@@H](CCCCN)C(=O)NCC(=O)N[C@@H](CCCNC(=N)N)C(=O)N[C@@H](CCSC)C(=O)N[C@@H](CCSC)C(=O)N[C@@H](CC(=O)O)C(=O)N[C@H](C(=O)N[C@@H](CCCCN)C(=O)N[C@@H](CCCCN)C(N)=O)C(C)C)[C@@H](C)CC [Peptide 2853806, Myristoyl-LLFIFRLRKGRMMDVKK-NH2] (Myristoyl-LLFIFRLRKGRMMDVKK-NH2) | 3997 | 3659 | 3696 | 4893 | 4.36% | 9.44% | 10.85% | 91.86% | 3361 | 8.22% | 85.71% | 81.25% | 80.00% |
| CCCCCCCCCCCCCC(=O)N[C@H](C(=O)N[C@@H](Cc1ccccc1)C(=O)N[C@H](C(=O)N[C@@H](Cc1ccccc1)C(=O)N[C@@H](CCCNC(=N)N)C(=O)N[C@@H](CC(C)C)C(=O)N[C@@H](CCCNC(=N)N)C(=O)N[C@@H](CCCCN)C(=O)NCC(=O)N[C@@H](CCCNC(=N)N)C(=O)N[C@@H](CCSC)C(=O)N[C@@H](C)C(=O)N[C@@H](CC(=O)O)C(=O)N[C@H](C(=O)N[C@@H](CCCCN)C(=O)N[C@@H](CCCCN)C(N)=O)C(C)C)[C@@H](C)CC)[C@@H](C)O [Peptide 2815313, Myristoyl-TFIFRLRKGRMADVKK-NH2] (Myristoyl-TFIFRLRKGRMADVKK-NH2) | 165 | 130 | 148 | 8909 | 22.34% | 23.02% | 27.96% | 61.54% | 80 | 24.44% | 69.60% | 69.06% | 64.65% |
